One data set concerns Ovarian cancer cell. The experiment in a line: Human cancer cell assessment. The class given is cell-based. From the text:
As a quick secondary screen, the additive alone and in combination with the target drug was examined in these human cancer cell lines. The results of TK-336 are shown as a specific example. The compound alone when treated over a wide concentration range had no effects against the cancer cells.

For another data set, the system named is mice. The experiment in a line: Mouse testing: toxic side effects of MTX, liver examination. The data set is classed as in vivo. The conditions noted are these: after two weeks of treatment every other day. The procedure:
(§1) The primary aspect is testing in mice for the ability to translate the toxic reducing action of the additive from flies into mice. Methotrexate was administered at a more moderate dose level, repeatedly over a long period of time. All additives tested for reducing the toxic side effects of MTX in mice were successful. That is 100% of the compounds identified in flies as toxic reducing compounds translated this activity into mice, for both chronic and acute applications. One of the signs of chronic liver damage by methotrexate is metabolic weight gain. The treatments were done on older juvenile mice (cohort of six). There weight gain was followed for two weeks with treatments given every other day.
At the end of the experiment, livers were examined.

Data set [1] can be described thus: Mouse testing: weight gain under repeated methotrexate. The class given is in vivo. The conditions noted are these: older juvenile mice, cohort of six; for weight: treatments every other day. The procedure:
as §1

The next data set has as its system fruit flies. The experiment in a line: Lethal dose (LD) curve in fruit flies. The class given is in vivo, Drosophila. The conditions noted are these: chemical mixed into food and water, 50 wild-type embryos; range tested 0.01 mM to 5 mM. The procedure: The LD curve in fruit flies was generated for methotrexate. The data to generate the curve was obtained by: Mixing a specific concentration of chemical into the food and water supply of the fruit flies, then 50 wild-type embryos are added to the assay. The LD value for this concentration was calculated by 100−(2×(number of alive flies)). The LD curve was generated by repeating this method over a concentration range. For example, the concentration range tested for methotrexate was 0.01 mM to 5 mM. The LD 98 was identified for methotrexate was 0.5 mM. The LD98 was used as a stringent level for identifying additive chemicals that reduce the toxicity. This stringent level of toxicity is key for several reasons: 1) The high toxicity dose turns even mild toxic side effects into significant barriers for the flies to survive. At the LD98 concentration of methotrexate, all of the toxic mechanisms are orders of magnitude above that observed at physiological treatment doses. At the LD98 dose, suppressing any one toxicity side effect will not enable significant survival of the flies. An additive that enables significant survival is more likely able to reduce all toxic side effects of methotrexate.

Regarding `CN(Cc1cnc2nc(N)nc(N)c2n1)c1ccc(C(=O)N[C@@H](CCC(=O)O)C(=O)O)cc1` [MTX], the Cell survival is on record as 50% in the data set on Ovarian cancer cell (15 μg/ml) and 5% with Ovarian cancer cell (30 μg/ml). The “appearance of the livers at the end of the experiment” value in the data set with mice was “smaller, yellow/orange in color and had almost no veins in the organ”. In addition, the “vein density in the liver” value in the data set on mice is given as 5 % of the normal density. The weight was determined as 107 in data set [1] (Day 0), 107 in data set [1] (Day 7) and 110 in data set [1] (Day 14). Moreover, in data set [1] (over two weeks), the weight gain/week is approximately 1 % weight gain/week. Further, the LD98 in the data set on fruit flies came out at 0.5 mM.

The values are drawn from patent publication US20080312201A1, “Reduced Toxicity Methotrexate Formulations and Methods for Using the Same” (priority 2004, published 2008).
